According to article PMC9065575, “Synthesis, computational studies, antimycobacterial and antibacterial properties of pyrazinoic acid–isoniazid hybrid conjugates” (RSC Advances, 2019):
Where “and” joins values, the source holds several entries; their conditions need not be identical. Identical values can stand only once. Like-named read-outs stand apart in the source and are kept apart here.

Assays:
Mycobacterium fortuitum = assay: microbe, parasite or virus in culture; assay type: cell-based; conditions: Mycolicibacterium fortuitum
[1] = tested on: RPE1 (normal human immortalized retinal epithelial) cell line; assay: Antiproliferative properties by MTT technique; assay type: cell-based; conditions: RPE1 cells, 100 μM
Procedure: Antiproliferative properties of the synthesized compounds were screened against RPE1 (normal human immortalized retinal epithelial) cell line to determine the toxicity/selectivity towards normal cell by the standard MTT technique.[23]
Antiproliferative properties of the synthesized compounds were tested against RPE1 (normal human immortalized retinal epithelial) cell line at 100 μM to determine the toxicity/selectivity towards normal cell by the standard MTT technique.[23]

Mycobacterium marinum = assay: microbe, parasite or virus in culture; assay type: cell-based; conditions: clinical isolate, read-out: Minimum inhibitory concentration (MIC) M. marinum
Mycobacterium bovis = assay: microbe, parasite or virus in culture; assay type: cell-based; conditions: for MIC: Mycobacterium tuberculosis variant bovis, read-out: Minimum inhibitory concentration (MIC) M. bovis; for potency relative to the standard references (M. bovis MIC): vs INH and PZA
[2] = tested on: M. tuberculosis Erdman strain expressing luciferase; assay: microbe, parasite or virus in culture; assay type: cell-based, Mycobacterium tuberculosis; conditions: for inhibition at 30 µg/mL: Mycobacterium tuberculosis, ERDMAN, 168 h, read-out: Observed % growth inhibition at 30 µg/mL
Klebsiella pneumoniae = assay: Aerobic antibacterial MIC, standard dilution technique; assay type: cell-based; conditions: clinical isolate, read-out: Minimum inhibitory concentration (MIC) Klebsiella pneumoniae
Source text: (§1) Antibacterial properties were investigated for the synthesized compounds against a variety of Gram-positive (Staphylococcus aureus, Enterococcus faecalis) and Gram-negative (Klebsiella pneumonia, Proteus vulgaris, Pseudomonas aeruginosa) clinical isolate bacteria utilizing the standard technique.[21]

Staphylococcus aureus = assay: as above; assay type: cell-based; conditions: clinical isolate, read-out: Minimum inhibitory concentration (MIC) Staphylococcus aureus
Source text: as §1

Proteus vulgaris = assay: as above; assay type: cell-based; conditions: clinical isolate, read-out: Minimum inhibitory concentration (MIC) Proteus vulgaris
Source text: as §1

Pseudomonas aeruginosa = assay: as above; assay type: cell-based; conditions: clinical isolate, read-out: Minimum inhibitory concentration (MIC) Pseudomonas aeruginosa
Source text: as §1

Enterococcus faecalis = assay: as above; assay type: cell-based; conditions: clinical isolate, read-out: Minimum inhibitory concentration (MIC) Enterococcus faecalis
Source text: as §1

[3] = clinical isolate, observed MIC, read-out: Minimum inhibitory concentration (MIC) M. fortuitum
[4] = clinical isolate, read-out: Minimum inhibitory concentration (MIC) M. fortuitum
[5] = 30 μg mL^−1, pH 7.0, 7 days, vs untreated controls
[6] = M. fortuitum, observed values listed with the BMLR-QSAR model, read-out: Observed MIC (Table S6)
[7] = Enterococcus faecalis, value in parentheses

Compound	MIC (Klebsiella pneumoniae) [µg/mL]	MIC (Klebsiella pneumoniae; value in parentheses) [µM]	MIC (Staphylococcus aureus) [µg/mL]	MIC (Staphylococcus aureus; value in parentheses) [µM]	MIC (Proteus vulgaris) [µg/mL]	MIC (Proteus vulgaris; value in parentheses) [µM]	MIC (Pseudomonas aeruginosa) [µg/mL]	MIC (Pseudomonas aeruginosa; value in parentheses) [µM]	MIC (Enterococcus faecalis; Enterococcus faecalis) [µg/mL]	MIC (Enterococcus faecalis; [7]) [µM]	further results
O=C(NC(Cc1ccccc1)C(=O)O)c1cnccn1 (racemic) [10f, (Pyrazine-2-carbonyl)-DL-phenylalanine]											MIC (Mycobacterium fortuitum; [3]): > 73.7 µM; MIC (Mycobacterium fortuitum; [4]): > 20 µg/mL; Percentage of cell proliferation ± SD [1]: 86.5 ± 4.2%; MIC (Mycobacterium marinum; observed MIC): 73.7 µM; MIC (Mycobacterium marinum): 20 µg/mL; MIC (Mycobacterium bovis): > 20 µg/mL and > 73.7 µM
O=C(N[C@@H](Cc1ccccc1)C(=O)O)c1cnccn1 [10e, (Pyrazine-2-carbonyl)-L-phenylalanine]											MIC (Mycobacterium fortuitum; [3]): > 73.7 µM; MIC (Mycobacterium fortuitum; [4]): > 20 µg/mL; Percentage of cell proliferation ± SD [1]: 90.4 ± 3.3%; MIC (Mycobacterium marinum; observed MIC): > 73.7 µM; MIC (Mycobacterium marinum): > 20 µg/mL; MIC (Mycobacterium bovis): > 20 µg/mL and > 73.7 µM; inhibition at 30 µg/mL [2, 5]: 60.4%
CSCC[C@H](NC(=O)c1cnccn1)C(=O)NNC(=O)c1ccncc1 [12d, (S)-N-(1-(2-Isonicotinoylhydrazineyl)-4-(methylthio)-1-oxobutan-2-yl)pyrazine-2-carboxamide]											MIC (Mycobacterium fortuitum; [6]): 53400 µM; MIC (Mycobacterium fortuitum; [3]): 53.4 µM; MIC (Mycobacterium fortuitum; [4]): 20 µg/mL; MIC (Mycobacterium marinum; observed MIC): 26.7 µM; MIC (Mycobacterium marinum): 10 µg/mL; melting point: 145 to 147 °C; MIC (Mycobacterium bovis): > 20 µg/mL and > 53.4 µM
NC(=O)c1cnccn1 [C00001]	64	520	1020	8320	8	65	4	32.5	0.12	0.97	
NNC(=O)c1ccncc1 [C00002]	8	58.3	64	467	64	467	64	467	16	117	
CC(C)C[C@H](NC(=O)c1cnccn1)C(=O)O [C00004]	64	270	1020	4320	8	33.7	0.03	0.13	0.03	0.13	
CC(C)[C@H](NC(=O)c1cnccn1)C(=O)O [C00005]	0.03	0.13	512	2290	0.06	0.27	4	17.9	0.03		
CC[C@@H](C)[C@H](NC(=O)c1cnccn1)C(=O)O [C00006]	8	33.7	16	67.4	0.06	0.25	0.12	0.51	0.03	0.13	
CSCC[C@H](NC(=O)c1cnccn1)C(=O)O [C00007]	64	251	16	62.7	0.06	0.24	0.12	0.47	0.03	0.12	
O=C(N[C@@H](Cc1ccccc1)C(=O)O)c1cnccn1 [C00008]	64	236	64	236	0.06	0.22	0.12	0.44	0.12	0.44	
O=C(NC(Cc1ccccc1)C(=O)O)c1cnccn1 (stereo not drawn) [C00009]	16	59	16	59	0.06	0.22	16	59	0.03	0.11	
O=C(N[C@@H](Cc1c[nH]c2ccccc12)C(=O)O)c1cnccn1 [C00010]	64	206	64	206	0.06	0.19	0.12	0.39	0.03	0.1	
CC(C)C[C@H](NC(=O)c1cnccn1)C(=O)NNC(=O)c1ccncc1 [C00011]	4	11.2	2	5.61	0.06	0.17	64	180	0.03	0.08	
CC(C)[C@H](NC(=O)c1cnccn1)C(=O)NNC(=O)c1ccncc1 [C00012]	8	23.4	16	46.7	0.06	0.18	0.12	0.35	0.12		MIC (Enterococcus faecalis; value in parentheses): 0.35 µM
CC[C@H](C)[C@H](NC(=O)c1cnccn1)C(=O)NNC(=O)c1ccncc1 [C00013]	8	22.4	16	44.9	0.06	0.17	0.12	0.34	0.03	0.08	
CSCC[C@H](NC(=O)c1cnccn1)C(=O)NNC(=O)c1ccncc1 [C00014]	4	10.7	64	171	0.06	0.16	0.12	0.32	0.03	0.08	
O=C(NNC(=O)[C@H](Cc1ccccc1)NC(=O)c1cnccn1)c1ccncc1 [C00015]	8	20.5	16	41	0.06	0.15	0.12	0.31	0.12	0.31	
O=C(NNC(=O)C(Cc1ccccc1)NC(=O)c1cnccn1)c1ccncc1 (stereo not drawn) [C00016]	8	20.5	16	41	16	41	32	82	0.03	0.08	
O=C(NNC(=O)[C@H](Cc1c[nH]c2ccccc12)NC(=O)c1cnccn1)c1ccncc1 [C00017]	4	9.31	16	37.3	0.06	0.14	0.12	0.28	0.03	0.07	
O=C(NNC(=O)c1cnccn1)c1ccncc1 [C00018]	8		8		64		0.03	0.12	16		
O=C(NNC(=O)c1ccncc1)c1ccncc1 [C00019]	4		4		0.03		0.06	0.25	16		
NNC(=O)c1ccncc1 [INH, isoniazid]											MIC (Mycobacterium fortuitum; [3]): 146 µM; MIC (Mycobacterium fortuitum; [4]): 20 µg/mL; MIC (Mycobacterium marinum; observed MIC): 72.9 µM; MIC (Mycobacterium marinum): 10 µg/mL; MIC (Mycobacterium bovis): 146 µM and 20 µg/mL; inhibition at 30 µg/mL [2, 5]: > 70%
NC(=O)c1cnccn1 [PZA, pyrazinamide, reference compound]											MIC (Mycobacterium fortuitum; [6]): 81200 µM; MIC (Mycobacterium fortuitum; [3]): 81.2 µM; MIC (Mycobacterium fortuitum; [4]): 10 µg/mL; MIC (Mycobacterium marinum; observed MIC): 81.2 µM; MIC (Mycobacterium marinum): 10 µg/mL; MIC (Mycobacterium bovis): 162 µM and 20 µg/mL; Observed % growth inhibition at 30 µg/mL [2, 5]: not observed
O=C(NNC(=O)c1cnccn1)c1ccncc1 [compound 13, N′-Isonicotinoylpyrazine-2-carbohydrazide]		32.9		32.9		263				65.8	MIC (Mycobacterium fortuitum; [6]): 41100 µM; MIC (Mycobacterium fortuitum; [3]): 41.1 µM; MIC (Mycobacterium fortuitum; [4]): 10 µg/mL; Percentage of cell proliferation ± SD [1]: 88.2 ± 5.1%; MIC (Mycobacterium marinum; observed MIC): 41.1 µM; MIC (Mycobacterium marinum): 10 µg/mL; MIC (Mycobacterium bovis): 82.2 µM and 20 µg/mL; potency relative to the standard references (M. bovis MIC) (Mycobacterium bovis): 1.8–2.0 folds; growth inhibition at 3 μg mL^−1 ([2]; 3 μg mL^−1, pH 7.0, compared with INH (>70% at 30 μg mL^−1)): same growth inhibition; inhibition at 30 µg/mL [2, 5]: 90.1%
O=C(NNC(=O)c1ccncc1)c1ccncc1 [compound 16, N′-Isonicotinoylisonicotinohydrazide]		16.5		16.5		0.12				66	MIC (Mycobacterium fortuitum; [6]): 82600 µM; MIC (Mycobacterium fortuitum; [3]): 82.6 µM; MIC (Mycobacterium fortuitum; [4]): 20 µg/mL; Percentage of cell proliferation ± SD [1]: 83.5 ± 7.4%; MIC (Mycobacterium marinum; observed MIC): 82.6 µM; MIC (Mycobacterium marinum): 20 µg/mL; MIC (Mycobacterium bovis): 82.6 µM and 20 µg/mL; potency relative to the standard references (M. bovis MIC) (Mycobacterium bovis): 1.8–2.0 folds; inhibition at 30 µg/mL [2, 5]: 78.1%
